From patent US20060069132A1, “Azolecarboxamide herbicides” (priority 2004, published 2006)
Where two headings read alike, the source gives them in different places.

Experiments:
[1] = tested on: pigweed; test: Test B pre-/postemergence herbicide test; type: in vivo, Amaranthus retroflexus
Summary of the method: (§1)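 Plants compared with untreated controls 13–15 days post-treatment and given a visual 0–100 injury score. Applications: preemergence to seeds; postemergence at 1- to 4-leaf (2–18 cm); paddy species flooded, 2-leaf stage. Vehicle non-phytotoxic, surfactant included.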

[2] = tested on: rice; test: Test B flooded paddy test; type: in vivo, Oryza sativa; settings: 1000 g ai/ha, scale 0 to 100 (0 no effect, 100 complete control)
Summary of the method: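 Formulated test chemicals went onto postemergence plants measuring 2 to 18 cm, at one to four leaves. For the paddy assay, species had reached two leaves. Scoring took place 13–15 days later by eye, relative to untreated plants, using 0 for no effect up to 100 for full control.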

[3] = tested on: corn; test: Test B pre-/postemergence herbicide test; type: in vivo, Zea mays
Summary of the method: as §1

[4] = tested on: morningglory; test: Test B pre-/postemergence herbicide test; type: in vivo, Ipomoea coccinea
Summary of the method: (§2)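 Greenhouse pot assay with simultaneous preemergence (treated seed) and postemergence (2–18 cm seedlings) applications of surfactant-containing, non-phytotoxic solvent formulations. Response scored visually 13–15 days later on a 0–100 scale, 100 meaning complete control.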

[5] = tested on: ducksalad; test: Test B flooded paddy test; type: in vivo, Heteranthera limosa; settings: 1000 g ai/ha, scale 0 to 100 (0 no effect, 100 complete control)
Summary of the method: (§3)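 Greenhouse test; postemergence application to plants at 1–4 leaves (2–18 cm); paddy species at 2 leaves; evaluated visually vs controls at 13–15 days; scale 0–100 (100 = complete control).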

[6] = tested on: lambsquarters; test: Test B pre-/postemergence herbicide test; type: in vivo, Chenopodium album
Summary of the method: as §1

[7] = tested on: Surinam grass; test: Test B pre-/postemergence herbicide test; type: in vivo, Urochloa decumbens
Summary of the method: as §1

[8] = tested on: blackgrass; test: Test B postemergence herbicide test; type: in vivo, Alopecurus myosuroides
Summary of the method: as §3

[9] = tested on: wild oat; test: Test B postemergence herbicide test; type: in vivo, Avena fatua
Summary of the method: as §3

[10] = tested on: wheat; test: Test B postemergence herbicide test; type: in vivo, Triticum aestivum; parameters: key to Wheat plant response rating: 0 = no effect, 100 = complete control
Summary of the method: as §3

[11] = tested on: cocklebur; test: Test B pre-/postemergence herbicide test; type: in vivo, Xanthium strumarium; settings: for pest or weed control at 500 g/ha / pest or weed control at 125 g/ha: Xanthium strumarium
Summary of the method: as §2

[12] = tested on: barnyardgrass; test: Test B flooded paddy test; type: in vivo, Echinochloa crus-galli; settings: 1000 g ai/ha, scale 0 to 100 (0 no effect, 100 complete control)
Summary of the method: as §3

[13] = tested on: small flower umbrella sedge; test: Test B flooded paddy test; type: in vivo, Cyperus difformis; settings: 1000 g ai/ha, scale 0 to 100 (0 no effect, 100 complete control)
Summary of the method: as §3

[14] = tested on: velvetleaf; test: Test B pre-/postemergence herbicide test; type: in vivo, Abutilon theophrasti
Summary of the method: as §1

[15] = tested on: giant foxtail; test: Test B pre-/postemergence herbicide test; type: in vivo, Setaria faberi; settings: for pest or weed control at 500 g/ha / pest or weed control at 125 g/ha: Setaria faberi, 336 h
Summary of the method: as §1

[16] = Postemergence, 500 g ai/ha, visual rating after 13 to 15 days, scale 0 (no effect) to 100 (complete control)
[17] = 125 g ai/ha, 0 = no effect, 100 = complete control, preemergence
[18] = 500 g ai/ha, visual rating, 0 = no effect, 100 = complete control, preemergence
[19] = postemergence, 125 g ai/ha, visual rating, scale 0 (no effect) to 100 (complete control)
[20] = postemergence, 500 g ai/ha, scale 0 to 100, 0 is no effect, 100 is complete control

CCOC(=O)c1cccc(NC(=O)c2cc(C(C)(C)C)nn2CC)c1 [Compound 80, ethyl 3-[[[3-(1,1-dimethylethyl)-1-ethyl-1H-pyrazol-5-yl]carbonyl]-amino]benzoate]
pest or weed control at 500 g/ha ([1]; Amaranthus retroflexus, post-emergence, 336 h, Postemergence, 500 g ai/ha, visual rating after 13 to 15 days, scale 0 (no effect) to 100 (complete control), read-out: Plant response rating, Pigweed): 100%
pest or weed control at 125 g/ha ([1]; Amaranthus retroflexus, post-emergence, 336 h, postemergence, 125 g ai/ha, visual rating, scale 0 (no effect) to 100 (complete control), read-out: Pigweed plant response rating): 100%
pest or weed control at 125 g/ha ([1]; Amaranthus retroflexus, pre-emergence, 336 h, preemergence, 125 g ai/ha, 0 to 100 scale, 0 is no effect, 100 is complete control, read-out: Plant response rating, Pigweed): 0%
plant injury at 1000 g/ha ([2]; Oryza sativa, 336 h, visual rating, 13 to 15 days, read-out: Rice plant response rating): 60%
Corn plant response rating (crop injury, 0 = no effect, 100 = complete kill) at 500 g/ha ([3]; Zea mays, post-emergence, Postemergence, 500 g ai/ha, visual rating after 13 to 15 days, scale 0 (no effect) to 100 (complete control)): 50%
plant injury at 125 g/ha ([3]; Zea mays, post-emergence, postemergence, 125 g ai/ha, visual rating, scale 0 (no effect) to 100 (complete control), read-out: Corn plant response rating): 20%
plant injury at 500 g/ha ([3]; Zea mays, pre-emergence, Preemergence, 500 g ai/ha, scale 0 to 100, read-out: Corn plant response rating): 10%
Corn plant response rating (crop injury, 0 = no effect, 100 = complete kill) at 125 g/ha ([3]; Zea mays, pre-emergence, preemergence, 125 g ai/ha, 0 to 100 scale, 0 is no effect, 100 is complete control): 0%
pest or weed control at 500 g/ha ([4]; Ipomoea, post-emergence, 336 h, Postemergence, 500 g ai/ha, visual rating after 13 to 15 days, scale 0 (no effect) to 100 (complete control), read-out: Plant response rating, Morningglory): 100%
pest or weed control at 125 g/ha ([4]; Ipomoea, post-emergence, 336 h, postemergence, 125 g ai/ha, visual rating, scale 0 (no effect) to 100 (complete control), read-out: Morningglory plant response rating): 100%
pest or weed control at 125 g/ha ([4]; Ipomoea, pre-emergence, 336 h, preemergence, 125 g ai/ha, 0 to 100 scale, 0 is no effect, 100 is complete control, read-out: Plant response rating, Morningglory): 0%
pest or weed control at 1000 g/ha ([5]; Heteranthera limosa, 336 h, visual rating, 13 to 15 days, read-out: Ducksalad plant response rating): 90%
pest or weed control at 500 g/ha ([6]; Chenopodium album, post-emergence, 336 h, Postemergence, 500 g ai/ha, visual rating after 13 to 15 days, scale 0 (no effect) to 100 (complete control), read-out: Plant response rating, Lambsquarters): 80%
pest or weed control at 125 g/ha ([6]; Chenopodium album, post-emergence, 336 h, postemergence, 125 g ai/ha, visual rating, scale 0 (no effect) to 100 (complete control), read-out: Lambsquarters plant response rating): 70%
pest or weed control at 125 g/ha ([6]; Chenopodium album, pre-emergence, 336 h, preemergence, 125 g ai/ha, 0 to 100 scale, 0 is no effect, 100 is complete control, read-out: Plant response rating, Lambsquarters): 0%
pest or weed control at 500 g/ha ([7]; Urochloa decumbens, post-emergence, Postemergence, 500 g ai/ha, visual rating after 13 to 15 days, scale 0 (no effect) to 100 (complete control), read-out: Plant response rating, Surinam Grass): 90%
pest or weed control at 125 g/ha ([7]; Urochloa decumbens, post-emergence, postemergence, 125 g ai/ha, visual rating, scale 0 (no effect) to 100 (complete control), read-out: Surinam Grass plant response rating): 90%
pest or weed control at 125 g/ha ([7]; Urochloa decumbens, pre-emergence, preemergence, 125 g ai/ha, 0 to 100 scale, 0 is no effect, 100 is complete control, read-out: Plant response rating, Surinam Grass): 0%
pest or weed control at 125 g/ha ([8]; Alopecurus myosuroides, post-emergence, 336 h, postemergence, 125 g ai/ha, visual rating, scale 0 (no effect) to 100 (complete control), read-out: Blackgrass plant response rating): 20%
Plant response rating, Blackgrass [8, 16]: 40
pest or weed control at 125 g/ha ([9]; Avena fatua, post-emergence, 336 h, postemergence, 125 g ai/ha, visual rating, scale 0 (no effect) to 100 (complete control), read-out: Oat, Wild plant response rating): 30%
Plant response rating, Oat, Wild [9, 16]: 50
Plant response rating, Wheat [10, 16]: 30
plant injury at 125 g/ha ([10]; Triticum aestivum, post-emergence, 336 h, postemergence, 125 g ai/ha, visual rating, scale 0 (no effect) to 100 (complete control), read-out: Wheat plant response rating): 20%
pest or weed control at 500 g/ha ([11]; post-emergence, Postemergence, 500 g ai/ha, visual rating after 13 to 15 days, scale 0 (no effect) to 100 (complete control), read-out: Plant response rating, Cocklebur): 100%
pest or weed control at 125 g/ha ([11]; post-emergence, postemergence, 125 g ai/ha, visual rating, scale 0 (no effect) to 100 (complete control), read-out: Cocklebur plant response rating): 70%
pest or weed control at 500 g/ha ([11]; pre-emergence, Preemergence, 500 g ai/ha, scale 0 to 100, read-out: Cocklebur plant response rating): 0%
pest or weed control at 125 g/ha ([11]; pre-emergence, preemergence, 125 g ai/ha, 0 to 100 scale, 0 is no effect, 100 is complete control, read-out: Plant response rating, Cocklebur): 0%
pest or weed control at 1000 g/ha ([12]; Echinochloa crus-galli, 336 h, visual rating, 13 to 15 days, read-out: Barnyardgrass plant response rating): 80%
pest or weed control at 1000 g/ha ([13]; Cyperus difformis, 336 h, visual rating, 13 to 15 days, read-out: Sedge, Umbrella plant response rating): 80%
pest or weed control at 500 g/ha ([14]; Abutilon theophrasti, post-emergence, 336 h, Postemergence, 500 g ai/ha, visual rating after 13 to 15 days, scale 0 (no effect) to 100 (complete control), read-out: Plant response rating, Velvetleaf): 100%
pest or weed control at 125 g/ha ([14]; Abutilon theophrasti, post-emergence, 336 h, postemergence, 125 g ai/ha, visual rating, scale 0 (no effect) to 100 (complete control), read-out: Velvetleaf plant response rating): 90%
pest or weed control at 125 g/ha ([14]; Abutilon theophrasti, pre-emergence, 336 h, preemergence, 125 g ai/ha, 0 to 100 scale, 0 is no effect, 100 is complete control, read-out: Plant response rating, Velvetleaf): 20%
pest or weed control at 500 g/ha ([15]; post-emergence, Postemergence, 500 g ai/ha, visual rating after 13 to 15 days, scale 0 (no effect) to 100 (complete control), read-out: Plant response rating, Foxtail, Giant): 90%
pest or weed control at 125 g/ha ([15]; post-emergence, postemergence, 125 g ai/ha, visual rating, scale 0 (no effect) to 100 (complete control), read-out: Foxtail, Giant plant response rating): 50%
pest or weed control at 500 g/ha ([15]; pre-emergence, Preemergence, 500 g ai/ha, scale 0 to 100, read-out: Foxtail, Giant plant response rating): 70%
pest or weed control at 125 g/ha ([15]; pre-emergence, preemergence, 125 g ai/ha, 0 to 100 scale, 0 is no effect, 100 is complete control, read-out: Plant response rating, Foxtail, Giant): 20%

C#CCNC(=O)c1cc(NC(=O)c2cc(C(C)(C)C)nn2CC)ccn1 [Compound 283]
Pigweed plant response rating (0 to 100 scale) [1, 17]: 0
Plant response rating, Pigweed [1, 18]: 100
Pigweed plant response rating [1, 19]: 0
Pigweed plant response rating [1, 20]: 20
Rice plant response rating [2]: 10
Plant response rating, Corn [3, 18]: 0
Corn plant response rating [3, 19]: 0
Corn plant response rating [3, 20]: 10
Morningglory plant response rating (0 to 100 scale) [4, 17]: 0
Plant response rating, Morningglory [4, 18]: 0
Morningglory plant response rating [4, 19]: 0
Morningglory plant response rating [4, 20]: 30
Ducksalad plant response rating [5]: 70
Lambsquarters plant response rating (0 to 100 scale) [6, 17]: 0
Plant response rating, Lambsquarters [6, 18]: 100
Lambsquarters plant response rating [6, 19]: 0
Lambsquarters plant response rating [6, 20]: 30
Surinam Grass plant response rating (0 to 100 scale) [7, 17]: 0
Plant response rating, Surinam Grass [7, 18]: 0
Surinam Grass plant response rating [7, 19]: 0
Surinam Grass plant response rating [7, 20]: 10
Blackgrass plant response rating [8, 19]: 20
Blackgrass plant response rating [8, 20]: 40
Oat, Wild plant response rating [9, 19]: 0
Oat, Wild plant response rating [9, 20]: 10
Wheat plant response rating [10, 19]: 20
Wheat plant response rating [10, 20]: 20
Cocklebur plant response rating (0 to 100 scale) [11, 17]: 0
Plant response rating, Cocklebur [11, 18]: 0
Cocklebur plant response rating [11, 19]: 0
Cocklebur plant response rating [11, 20]: 0
Barnyardgrass plant response rating [12]: 20
Sedge, Umbrella plant response rating [13]: 80
Velvetleaf plant response rating (0 to 100 scale) [14, 17]: 0
Plant response rating, Velvetleaf [14, 18]: 0
Velvetleaf plant response rating [14, 19]: 0
Velvetleaf plant response rating [14, 20]: 0
Foxtail, Giant plant response rating (0 to 100 scale) [15, 17]: 0
Plant response rating, Foxtail, Giant [15, 18]: 10
Foxtail, Giant plant response rating [15, 19]: 0
Foxtail, Giant plant response rating [15, 20]: 0
